According to publication PMC12903969, “Discovery of a Novel and Potent Kir4.1 Inhibitor as a Safe and Rapid‐Onset Antidepressant Agent in Mice” (Advanced Science, 2025):
“And” between values parts separate entries of the source, which are not always exact repeats. Equal entries are not always repeated. Where two headings read alike, the source gives them in different places.

What was measured:
Kir2.1 = biological target: T1, Kir2.1 (Homo sapiens, UniProt P63252); assay: Whole-cell patch clamp, Kir2.1; format: cell-based
T1 construct: host or cells: CHO-K1
T1 sequence (P63252 1-427): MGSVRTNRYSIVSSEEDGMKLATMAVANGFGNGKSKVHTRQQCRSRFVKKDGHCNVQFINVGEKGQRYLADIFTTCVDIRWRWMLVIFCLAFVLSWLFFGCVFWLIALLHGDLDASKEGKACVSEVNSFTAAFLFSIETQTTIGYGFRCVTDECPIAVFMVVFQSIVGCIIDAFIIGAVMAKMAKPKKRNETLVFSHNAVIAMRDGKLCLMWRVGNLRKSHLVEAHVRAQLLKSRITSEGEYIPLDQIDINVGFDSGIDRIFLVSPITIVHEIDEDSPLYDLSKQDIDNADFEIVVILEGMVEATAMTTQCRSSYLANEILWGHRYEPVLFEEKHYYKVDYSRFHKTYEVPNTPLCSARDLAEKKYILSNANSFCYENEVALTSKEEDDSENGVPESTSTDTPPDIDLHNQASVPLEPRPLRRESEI
Method: Plasmids encoding WT human potassium channels Kir1.1, Kir2.1, Kir2.2, Kir4.1, and Kir4.2 were obtained from the Beijing Genomics Institute. All point mutations were constructed using the QuickChange II Site‐Directed Mutagenesis Kit (Stratagene) and subsequently verified by sequencing.
CHO‐K1 cells were maintained in DMEM/F12 growth medium containing 10% fetal bovine serum. Plasmids encoding the target genes (3600 ng) and enhanced green fluorescent protein (400 ng) were cotransfected into cells using Lipofectamine 2000 (Invitrogen) in accordance with the manufacturer's instructions. Cells were seeded onto poly‐d‐lysine (PDL)‐coated glass coverslips 1 h prior to electrophysiological recordings. All cells were cultured under standard conditions of 5% CO2 at 37 °C.
Whole‐cell patch‐clamp recordings were obtained either in transiently transfected CHO‐K1 cells or in primary cultured astrocytes at room temperature using standard patch‐clamp techniques with an Axopatch‐700B amplifier (Axon Instruments). The signals were filtered at 2 kHz and sampled at 20 kHz using the Digidata 1440A interface (Axon Instruments). The resistance of borosilicate glass pipettes was typically 2–4 MΩ when filled with the internal solution. Drug application was facilitated using a BPS perfusion system (ALA Scientific Instruments). Macroscopic currents generated by expressed potassium channels were recorded under the voltage‐clamp conditions with an internal pipette solution composed of (in mM): 140 KCl, 5 NaCl, 1 CaCl2, 1 MgCl2, 10 HEPES, and 10 EGTA, pH 7.2 adjusted with KOH. The external solution contained (in mM): 140 NaCl, 5 KCl, 2 CaCl2, 1 MgCl2, 10 glucose, and 10 HEPES, pH 7.4 adjusted with NaOH. Currents were elicited with a hyperpolarized voltage at −120 mV from the holding potential of −80 mV, followed by a ramp voltage depolarizing to +50 mV. Astrocytic resting membrane potentials were recorded under current‐clamp conditions (I = 0 pA) using standard internal and external solutions, determined immediately after achieving whole‐cell mode.

[1] = biological target: T2, 5-HTT (serotonin transporter, SERT) (Homo sapiens, UniProt P31645); assay: 5-HTT functional assay (fluorescent neurotransmitter transporter uptake); format: cell-based; design: SERT inhibition, replicates: unit not given here
T2 construct: expressed in transfected cells
T2 sequence (P31645 whole entry): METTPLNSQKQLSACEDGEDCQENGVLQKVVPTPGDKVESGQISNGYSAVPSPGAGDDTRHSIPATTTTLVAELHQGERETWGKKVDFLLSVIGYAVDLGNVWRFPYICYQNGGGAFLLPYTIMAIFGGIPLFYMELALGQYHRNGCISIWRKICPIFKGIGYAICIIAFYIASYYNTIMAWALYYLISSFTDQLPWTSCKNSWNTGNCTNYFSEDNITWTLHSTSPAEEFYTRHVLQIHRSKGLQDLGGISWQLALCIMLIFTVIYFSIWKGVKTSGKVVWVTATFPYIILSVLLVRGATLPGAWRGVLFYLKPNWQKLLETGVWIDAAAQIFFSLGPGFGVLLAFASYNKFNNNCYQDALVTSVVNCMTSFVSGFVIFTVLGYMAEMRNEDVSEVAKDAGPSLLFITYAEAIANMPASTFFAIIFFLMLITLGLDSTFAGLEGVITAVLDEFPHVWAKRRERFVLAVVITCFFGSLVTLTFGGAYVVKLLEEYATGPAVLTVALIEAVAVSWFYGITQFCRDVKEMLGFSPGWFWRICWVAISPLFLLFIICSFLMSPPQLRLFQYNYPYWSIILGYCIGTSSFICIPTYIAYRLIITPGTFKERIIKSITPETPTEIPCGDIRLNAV
Method: (§1) The 5‐HTT/DAT functional assays were commissioned by Elsevier Science and Technology Co., Ltd. (Beijing). A fluorescence‐based neurotransmitter assay was conducted using a Neurotransmitter Transporter Uptake Assay Kit (Molecular Devices, R8174), according to the manufacturer's protocol. Flp‐in T‐rex 293 cells transiently expressing the human norepinephrine transporter and HEK293 cells stably expressing the human dopamine or serotonin transporters were seeded in PDL‐coated 384‐well plates and incubated overnight. Subsequently, the medium was removed, and the cells were treated with 16 µL of compounds diluted in assay buffer for 0.5 h at 37 °C. Centanafadine and 0.1% DMSO served as positive and negative controls, respectively. Then, 16 µL of dye mix prepared in 1× Hanks’ Balanced Salt Solution was added to each well and incubated at 37 °C for 1 h. Finally, the data point was acquired via a fluorescence plate reader with excitation at 450 nm and emission at 528 nm.

[2] = biological target: T3, DAT (dopamine transporter) (Homo sapiens, UniProt Q01959); assay: DAT functional assay (fluorescent neurotransmitter transporter uptake); format: cell-based; design: DAT inhibition, replicates: unit not given here
T3 construct: expressed in transfected cells
T3 sequence (Q01959 whole entry): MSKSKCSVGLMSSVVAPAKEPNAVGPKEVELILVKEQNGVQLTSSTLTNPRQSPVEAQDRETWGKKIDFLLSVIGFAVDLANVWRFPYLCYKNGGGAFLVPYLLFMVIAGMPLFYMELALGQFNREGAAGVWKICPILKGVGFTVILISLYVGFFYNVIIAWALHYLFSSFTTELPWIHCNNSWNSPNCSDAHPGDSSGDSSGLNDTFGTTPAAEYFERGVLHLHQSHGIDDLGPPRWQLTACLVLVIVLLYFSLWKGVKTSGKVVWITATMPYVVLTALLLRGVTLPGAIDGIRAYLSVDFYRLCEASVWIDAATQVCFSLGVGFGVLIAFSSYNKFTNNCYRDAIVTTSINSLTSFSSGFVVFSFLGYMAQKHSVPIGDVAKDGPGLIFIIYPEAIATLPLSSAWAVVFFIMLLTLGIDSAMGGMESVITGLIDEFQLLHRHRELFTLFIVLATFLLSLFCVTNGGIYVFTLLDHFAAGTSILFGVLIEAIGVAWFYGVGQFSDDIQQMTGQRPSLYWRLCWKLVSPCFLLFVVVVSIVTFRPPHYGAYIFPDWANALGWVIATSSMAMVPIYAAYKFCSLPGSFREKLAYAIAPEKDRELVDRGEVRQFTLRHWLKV
Method: as §1

C57BL/6J mice = assay: Novelty-suppressed feeding test (NSFT); format: in vivo
Method: The mice were individually housed in new cages and deprived of food for 24 h. The testing equipment was a brightly lit plastic box measuring 40 × 40 × 30 cm^3 with a light intensity of 1100–1200 lux. Each mouse was positioned in a corner of the device with one food pellet located at the center. The latency to start chewing food was recorded within 5 min. Immediately thereafter, the mice were placed back in their home cage with pre‐measured food, and the amount consumed in the next 5 min was used as a baseline to account for appetite changes that might affect the outcome.

mice = assay: Acute forced swim test (FST); format: in vivo; conditions: 30 and 60 mg kg−1
Method: Mice were placed individually in a transparent glass cylinder (25 cm high, 10 cm wide) filled with water (temperature 23–25 °C) to a depth of 10 cm, and prevented from making contact with the bottom. Mice behaviors were videotaped from each side. The observation period lasted for 6 min, with the final 4 min used to measure immobile behavior, which was processed using the AnyMaze Tracking System (Stoelting).

[3] = concentration 100000 (unit not given)

In the case of `c1ccc2c(c1)oc1ccc(Nc3ccnc(NCCCN4CCOCC4)n3)cc12` [JX3212, N^4-(dibenzo[b,d]furan-2-yl)-N^2-(3-morpholinopropyl)pyrimidine-2,4-diamine], the inhibition at 3 µM (Kir2.1; 3 µM, mean ± SEM, read-out: inhibition of Kir2.1) is reported as 49.9 ± 4.35%, the “Kir isoforms: Kir2.1 inhibition, single recordings” value (Kir2.1; JX3212 3 µM (Fig 2A)) is reported as 46.776 and 54.8667 and the inhibition at 3 µM (Kir2.1; JX3212 3 µM (Fig 2A), read-out: Kir isoforms: Kir2.1 inhibition, single recordings) is reported as 48.1%. For the same compound, the IC50 [1] was 6.45 µM, the “SERT inhibition, replicates” value ([1]; concentration 3) was 13.3 and 7.67 and the “SERT inhibition, replicates” value ([1]; concentration 10) was 17.62 and 13.2. The “SERT inhibition, replicates” value ([1]; concentration 30) was 16.11 and 14.3, the “SERT inhibition, replicates” value ([1]; concentration 100) was 16.51 and 15.81 and the “SERT inhibition, replicates” value ([1]; concentration 300) was 18.52 and 16.01. For the same compound, the “SERT inhibition, replicates” value ([1]; concentration 1000) was 49.66 and 31.98, the “SERT inhibition, replicates” value ([1]; concentration 3000) was 51.87 and 29.87 and the “SERT inhibition, replicates” value ([1]; concentration 10000) was 69.95 and 46.05. For the same compound, the “SERT inhibition, replicates” value ([1]; concentration 30000) was 87.23 and 70.86, the “SERT inhibition, replicates” value [1, 3] was 112.04 and 105.72 and the IC50 [2] was 5.2 µM. The “DAT inhibition, replicates” value ([2]; concentration 3) was -3.23 and -17.79, the “DAT inhibition, replicates” value ([2]; concentration 10) was -5 and -8.74 and the “DAT inhibition, replicates” value ([2]; concentration 30) was 1.89 and -0.08. For the same compound, the “DAT inhibition, replicates” value ([2]; concentration 100) was -1.46 and -1.85, the “DAT inhibition, replicates” value ([2]; concentration 300) was -3.23 and -0.87 and the “DAT inhibition, replicates” value ([2]; concentration 1000) was 32. For the same compound, the “DAT inhibition, replicates” value ([2]; concentration 3000) was 70.17 and 28.06, the “DAT inhibition, replicates” value ([2]; concentration 10000) was 80.01 and 56.79 and the “DAT inhibition, replicates” value ([2]; concentration 30000) was 99.88 and 90.83. For the same compound, the “DAT inhibition, replicates” value [2, 3] was 110.9 and 109.92, the “effective threshold dose in NSFT” value (C57BL/6J mice; acute administration, doses 1, 3, 10 mg kg−1) was 10 mg/kg and the “food intake in home cage after NSFT (in words)” value (C57BL/6J mice; repeated administration, vs vehicle) was “remained comparable to that in the vehicle group”. For the same compound, the “Food intake in home cage, single mice” value (C57BL/6J mice; repeated doses, 3 mg/kg (Fig 3F), 3 mg/kg) was 0.14 and 0.11 and 0.12 and 0.1 and 0.09, the “NSFT antidepressant-like response after repeated administration (in words)” value (C57BL/6J mice; seven days, imipramine 15 mg kg−1, JX3212 3/10 mg kg−1) was “elicited significant antidepressant‐like responses” and the “NSFT latency to feed (in words)” value (C57BL/6J mice; single dose 10 mg kg−1 i.p., 1 h after administration) was “significantly reduced the latency to feed”. The “immobility time in acute FST (in words)” value (mice) was “significantly reducing immobility time”.
